Test results published in patent publication US20260297081A1, “COMPOUNDS AND METHODS OF TREATING CANCERS” (Cullgen Inc., priority 2023, published 2026).
One block for each compound: values may come before it.

Experiments:
Assay type in all cases: cell-based
T47D cells = assay: Anti-proliferation (viability) of ER+ breast cancer T47D cells, 6 days (Table 7, FIG. 2B); settings: Homo sapiens, 144 h; T47D cells, 6 days, 10-point serial dilution; read-out: GI IC50 in T47D
Description: To evaluate anti-proliferation activities of heterobifunctional compounds, NSCLC Calu-1 or ER+ breast cancer T47D cells were treated with selected heterobifunctional compounds following a 10-point serial dilution for 3 or 6 days, respectively.
To verify that heterobifunctional compound-mediated degradation is dependent on the binding to CDK4-cyclin D complex, a negative control compound, CPD-143, which is derived from active heterobifunctional compound CPD-10 was designed. CPD-143 bears the same DDB1 ligand and linker as CPD-10 but with a modified warhead to impair the binding of the control compound to CDK4.

MCF7 cells = assay: Anti-proliferation (viability) of MCF7 cells (Table 7, FIG. 2B); settings: Homo sapiens, MCF7, MCF7 cells, 3-6 days, 10-point serial dilution; read-out: GI IC50 in MCF-7
Calu-1 cells = assay: Anti-proliferation (viability) of NSCLC Calu-1 cells, 3 days (Table 7, FIG. 2B); settings: Homo sapiens, 72 h; Calu-1 cells, 3 days, 10-point serial dilution; read-out: GI IC50 in Calu-1
How it was run: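 Heterobifunctional compounds are tested in 10-point serial dilutions on Calu-1 (3-day exposure) and T47D (6-day exposure) cells.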

CDK4 = CDK4 (Homo sapiens, UniProt P11802+Q16531); assay: CDK4 percentage degradation in Calu-1 cells (Table 6); parameters: Cells that express cyclin D1-3 and CDK4/6 proteins were treated with heterobifunctional compounds; endogenous in cells; host or cells: Calu-1; settings: 16 hours; for inhibition at 0.04 µM: 40 nM; for inhibition at 0.2 µM: 200 nM
Chain of CDK4 (P11802 2-303 limits assumed): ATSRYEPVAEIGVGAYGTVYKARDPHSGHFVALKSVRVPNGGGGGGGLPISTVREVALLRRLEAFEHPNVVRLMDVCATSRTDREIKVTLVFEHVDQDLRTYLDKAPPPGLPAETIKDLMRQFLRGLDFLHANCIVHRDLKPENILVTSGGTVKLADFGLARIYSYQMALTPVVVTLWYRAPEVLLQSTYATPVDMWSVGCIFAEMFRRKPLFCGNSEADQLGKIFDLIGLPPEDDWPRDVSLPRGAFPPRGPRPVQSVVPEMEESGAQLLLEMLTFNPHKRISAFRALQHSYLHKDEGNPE
Chain of CDK4 (P24385 whole entry partner): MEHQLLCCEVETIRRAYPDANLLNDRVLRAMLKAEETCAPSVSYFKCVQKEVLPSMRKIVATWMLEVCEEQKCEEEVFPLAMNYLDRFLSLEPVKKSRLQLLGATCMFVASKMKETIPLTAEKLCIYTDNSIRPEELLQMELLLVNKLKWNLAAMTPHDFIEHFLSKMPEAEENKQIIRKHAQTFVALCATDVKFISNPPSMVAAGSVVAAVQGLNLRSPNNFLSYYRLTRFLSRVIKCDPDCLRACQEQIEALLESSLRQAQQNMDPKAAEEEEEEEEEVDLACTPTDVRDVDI
Chain of CDK4 (Q16531 2-1140 limits assumed): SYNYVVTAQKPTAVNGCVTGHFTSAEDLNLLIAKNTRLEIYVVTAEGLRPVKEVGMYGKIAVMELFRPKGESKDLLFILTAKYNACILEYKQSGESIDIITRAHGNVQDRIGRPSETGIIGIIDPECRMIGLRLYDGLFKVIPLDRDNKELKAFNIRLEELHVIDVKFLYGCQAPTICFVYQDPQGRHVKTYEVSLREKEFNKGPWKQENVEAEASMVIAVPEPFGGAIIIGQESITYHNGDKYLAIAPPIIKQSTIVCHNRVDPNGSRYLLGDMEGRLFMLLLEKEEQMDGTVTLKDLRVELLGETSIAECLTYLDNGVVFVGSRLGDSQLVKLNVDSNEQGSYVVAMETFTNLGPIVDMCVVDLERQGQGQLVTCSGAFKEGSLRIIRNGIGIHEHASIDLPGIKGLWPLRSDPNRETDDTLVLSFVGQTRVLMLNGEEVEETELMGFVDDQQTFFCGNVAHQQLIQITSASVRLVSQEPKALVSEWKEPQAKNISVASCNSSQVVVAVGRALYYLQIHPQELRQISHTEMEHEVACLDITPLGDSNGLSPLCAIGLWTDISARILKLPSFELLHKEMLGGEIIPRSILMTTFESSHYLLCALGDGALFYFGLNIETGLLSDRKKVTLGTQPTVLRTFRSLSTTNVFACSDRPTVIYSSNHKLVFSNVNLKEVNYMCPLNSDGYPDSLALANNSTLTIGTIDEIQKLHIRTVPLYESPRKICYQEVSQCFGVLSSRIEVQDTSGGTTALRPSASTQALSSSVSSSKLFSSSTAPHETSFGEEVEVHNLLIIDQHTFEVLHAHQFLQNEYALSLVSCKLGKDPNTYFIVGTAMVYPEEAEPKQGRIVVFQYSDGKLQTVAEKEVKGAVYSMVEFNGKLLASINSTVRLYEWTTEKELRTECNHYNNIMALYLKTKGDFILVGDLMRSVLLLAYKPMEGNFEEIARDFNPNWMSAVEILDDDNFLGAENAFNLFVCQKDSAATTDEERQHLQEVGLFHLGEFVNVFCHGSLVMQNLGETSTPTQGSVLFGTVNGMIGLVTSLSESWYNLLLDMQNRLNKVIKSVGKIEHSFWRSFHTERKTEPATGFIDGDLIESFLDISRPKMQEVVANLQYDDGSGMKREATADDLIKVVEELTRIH
How it was run: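 Percentage degradation of Cyclin D1 and CDK4 derived from densitometry of ECL Western blots on lysates of Calu-1 cells. Treatment was 16 h with compound at either 40 nM or 200 nM.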

Compound: CNc1ccc(C(=O)Nc2ccc(N(C)C)nn2)c(NCCCCCNC(=O)CN2CCN(c3ccc(Nc4ncc5c(C)c(C(C)=O)c(=O)n(C6CCCC6)c5n4)nc3)CC2)n1 [CPD-5, 2-((5-(2-(4-(6-((6-acetyl-8-cyclopentyl-5-methyl-7-oxo-7,8-dihydropyrido[2,3-d]pyrimidin-2-yl)amino)pyridin-3-yl)piperazin-1-yl)acetamido)pentyl)amino)-N-(6-(dimethylamino)pyridazin-3-yl)-6-(methylamino)nicotinamide]
IC50 (T47D cells): ≤ 50 nM
IC50 (MCF7 cells): < 50 nM
IC50 (Calu-1 cells): ≤ 10 nM
inhibition at 0.04 µM (CDK4): 50 to 80%

Compound: CC(=O)c1c(C)c2cnc(Nc3ccc(N4CCN(CC(=O)NCCCCCCCNc5nc(C)ccc5C(=O)Nc5ccc(N(C)C)nn5)CC4)cn3)nc2n(C2CCCC2)c1=O [CPD-8, 2-((7-(2-(4-(6-((6-acetyl-8-cyclopentyl-5-methyl-7-oxo-7,8-dihydropyrido[2,3-d]pyrimidin-2-yl)amino)pyridin-3-yl)piperazin-1-yl)acetamido)heptyl)amino)-N-(6-(dimethylamino)pyridazin-3-yl)-6-methylnicotinamide]
IC50 (T47D cells): ≤ 50 nM
IC50 (MCF7 cells): < 50 nM
IC50 (Calu-1 cells): ≤ 10 nM
inhibition at 0.04 µM (CDK4): 50 to 80%
inhibition at 0.2 µM (CDK4): > 80%

Compound: CNc1ccc(C(=O)Nc2ccc(OC)nn2)c(NCCCCCCCNC(=O)CN2CCN(c3ccc(Nc4ncc5c(C)c(C(C)=O)c(=O)n(C6CCCC6)c5n4)nc3)CC2)n1 [CPD-11, 2-((7-(2-(4-(6-((6-Acetyl-8-cyclopentyl-5-methyl-7-oxo-7,8-dihydropyrido[2,3-d]pyrimidin-2-yl)amino)pyridin-3-yl)piperazin-1-yl)acetamido)heptyl)amino)-N-(6-methoxypyridazin-3-yl)-6-(methylamino)nicotinamide]
IC50 (T47D cells): 50 to 100 nM
IC50 (MCF7 cells): < 50 nM
IC50 (Calu-1 cells): 10 to 50 nM
inhibition at 0.04 µM (CDK4): 50 to 80%
inhibition at 0.2 µM (CDK4): > 80%

Compound: CNc1ccc(C(=O)Nc2ccc(N(C)C)nn2)c(NCCCCCNC(=O)C(C)N2CCN(c3ccc(Nc4ncc5c(C)c(C(C)=O)c(=O)n(C6CCCC6)c5n4)nc3)CC2)n1 (stereo not shown) [CPD-14, 2-((5-(2-(4-(6-((6-Acetyl-8-cyclopentyl-5-methyl-7-oxo-7,8-dihydropyrido[2,3-d]pyrimidin-2-yl)amino)pyridin-3-yl)piperazin-1-yl)propanamido)pentyl)amino)-N-(6-(dimethylamino)pyridazin-3-yl)-6-(methylamino)nicotinamide]
IC50 (T47D cells): 50 to 100 nM
IC50 (MCF7 cells): < 50 nM
IC50 (Calu-1 cells): ≤ 10 nM
inhibition at 0.04 µM (CDK4): 50 to 80%
inhibition at 0.2 µM (CDK4): 50 to 80%

Compound: CC(=O)c1c(C)c2cnc(Nc3ccc(N4CCN(CC(=O)NCCCCCNc5nc(C)ccc5C(=O)Nc5ccc(N(C)C)nn5)CC4)cn3)nc2n(C2CCCC2)c1=O [CPD-16, 2-((5-(2-(4-(6-((6-Acetyl-8-cyclopentyl-5-methyl-7-oxo-7,8-dihydropyrido[2,3-d]pyrimidin-2-yl)amino)pyridin-3-yl)piperazin-1-yl)acetamido)pentyl)amino)-N-(6-(dimethylamino)pyridazin-3-yl)-6-methylnicotinamide]
IC50 (T47D cells): ≤ 50 nM
IC50 (MCF7 cells): < 50 nM
IC50 (Calu-1 cells): ≤ 10 nM
inhibition at 0.04 µM (CDK4): 50 to 80%
inhibition at 0.2 µM (CDK4): 50 to 80%

Compound: CC(=O)c1c(C)c2cnc(Nc3ccc(N4CCN(CC(=O)NCCCCCNc5nc(NC(C)C)ccc5C(=O)Nc5ccc(N(C)C)nn5)CC4)cn3)nc2n(C2CCCC2)c1=O [CPD-18, 2-((5-(2-(4-(6-((6-Acetyl-8-cyclopentyl-5-methyl-7-oxo-7,8-dihydropyrido[2,3-d]pyrimidin-2-yl)amino)pyridin-3-yl)piperazin-1-yl)acetamido)pentyl)amino)-N-(6-(dimethylamino)pyridazin-3-yl)-6-(isopropylamino)nicotinamide]
IC50 (T47D cells): ≤ 50 nM
IC50 (MCF7 cells): < 50 nM
IC50 (Calu-1 cells): ≤ 10 nM
inhibition at 0.04 µM (CDK4): 50 to 80%
inhibition at 0.2 µM (CDK4): 50 to 80%

Compound: CNc1ccc(C(=O)Nc2ccc(N(C)C)nn2)c(NCCCCCNCCN2CCN(c3ccc(Nc4ncc5c(C)c(C(C)=O)c(=O)n(C6CCCC6)c5n4)nc3)CC2)n1 [CPD-21, 2-((5-((2-(4-(6-((6-Acetyl-8-cyclopentyl-5-methyl-7-oxo-7,8-dihydropyrido[2,3-d]pyrimidin-2-yl)amino)pyridin-3-yl)piperazin-1-yl)ethyl)amino)pentyl)amino)-N-(6-(dimethylamino)pyridazin-3-yl)-6-(methylamino)nicotinamide]
IC50 (T47D cells): 50 to 100 nM
IC50 (MCF7 cells): > 100 nM
IC50 (Calu-1 cells): 10 to 50 nM
inhibition at 0.04 µM (CDK4): 50 to 80%

Other lines, results leading:

IC50 (T47D cells): ≤ 50 nM
IC50 (MCF7 cells): 50 to 100 nM
IC50 (Calu-1 cells): ≤ 10 nM
inhibition at 0.04 µM (CDK4): > 80%
inhibition at 0.2 µM (CDK4): > 80%
Compound: CNc1ccc(C(=O)Nc2ccc(N(C)C)nn2)c(NCCCCC(C)NC(=O)CN2CCN(c3ccc(Nc4ncc5c(C)c(C(C)=O)c(=O)n(C6CCCC6)c5n4)nc3)CC2)n1 (stereo not shown) [CPD-22, 2-((5-(2-(4-(6-((6-Acetyl-8-cyclopentyl-5-methyl-7-oxo-7,8-dihydropyrido[2,3-d]pyrimidin-2-yl)amino)pyridin-3-yl)piperazin-1-yl)acetamido)hexyl)amino)-N-(6-(dimethylamino)pyridazin-3-yl)-6-(methylamino)nicotinamide]

IC50 (T47D cells): ≥ 100 nM
IC50 (MCF7 cells): > 100 nM
IC50 (Calu-1 cells): 10 to 50 nM
inhibition at 0.04 µM (CDK4): 50 to 80%
inhibition at 0.2 µM (CDK4): > 80%
Compound: CNc1ccc(C(=O)Nc2ccc(N(C)C)nn2)c(Nc2cnn(CCNC(=O)CN3CCN(c4ccc(Nc5ncc6c(C)c(C(C)=O)c(=O)n(C7CCCC7)c6n5)nc4)CC3)c2)n1 [CPD-24, 2-((1-(2-(2-(4-(6-((6-Acetyl-8-cyclopentyl-5-methyl-7-oxo-7,8-dihydropyrido[2,3-d]pyrimidin-2-yl)amino)pyridin-3-yl)piperazin-1-yl)acetamido)ethyl)-1H-pyrazol-4-yl)amino)-N-(6-(dimethylamino)pyridazin-3-yl)-6-(methylamino)nicotinamide]

IC50 (T47D cells): 50 to 100 nM
IC50 (MCF7 cells): > 100 nM
IC50 (Calu-1 cells): 10 to 50 nM
inhibition at 0.04 µM (CDK4): 50 to 80%
inhibition at 0.2 µM (CDK4): 50 to 80%
Compound: CNc1ccc(C(=O)Nc2ccc(N(C)C)nn2)c(Nc2cc(CCNC(=O)CN3CCN(c4ccc(Nc5ncc6c(C)c(C(C)=O)c(=O)n(C7CCCC7)c6n5)nc4)CC3)no2)n1 [CPD-26, 2-((3-(2-(2-(4-(6-((6-Acetyl-8-cyclopentyl-5-methyl-7-oxo-7,8-dihydropyrido[2,3-d]pyrimidin-2-yl)amino)pyridin-3-yl)piperazin-1-yl)acetamido)ethyl)isoxazol-5-yl)amino)-N-(6-(dimethylamino)pyridazin-3-yl)-6-(methylamino)nicotinamide]

IC50 (T47D cells): 50 to 100 nM
IC50 (MCF7 cells): 50 to 100 nM
IC50 (Calu-1 cells): ≤ 10 nM
inhibition at 0.04 µM (CDK4): > 80%
inhibition at 0.2 µM (CDK4): > 80%
Compound: CC(=O)c1c(C)c2cnc(Nc3ccc(N4CCN(CC(=O)NCCCCCNc5nc(C6CC6)ccc5C(=O)Nc5ccc(N(C)C)nn5)CC4)cn3)nc2n(C2CCCC2)c1=O [CPD-27, 2-((5-(2-(4-(6-((6-Acetyl-8-cyclopentyl-5-methyl-7-oxo-7,8-dihydropyrido[2,3-d]pyrimidin-2-yl)amino)pyridin-3-yl)piperazin-1-yl)acetamido)pentyl)amino)-6-cyclopropyl-N-(6-(dimethylamino)pyridazin-3-yl)nicotinamide]

IC50 (T47D cells): 50 to 100 nM
IC50 (MCF7 cells): > 100 nM
IC50 (Calu-1 cells): 10 to 50 nM
inhibition at 0.04 µM (CDK4): 50 to 80%
inhibition at 0.2 µM (CDK4): > 80%
Compound: CNc1ccc(C(=O)Nc2ccc(N(C)C)nn2)c(NCCCCn2cc(CN3CCN(c4ccc(Nc5ncc6c(C)c(C(C)=O)c(=O)n(C7CCCC7)c6n5)nc4)CC3)nn2)n1 [CPD-30, 2-((4-(4-((4-(6-((6-Acetyl-8-cyclopentyl-5-methyl-7-oxo-7,8-dihydropyrido[2,3-d]pyrimidin-2-yl)amino)pyridin-3-yl)piperazin-1-yl)methyl)-1H-1,2,3-triazol-1-yl)butyl)amino)-N-(6-(dimethylamino)pyridazin-3-yl)-6-(methylamino)nicotinamide]

IC50 (T47D cells): 50 to 100 nM
IC50 (MCF7 cells): > 100 nM
IC50 (Calu-1 cells): 10 to 50 nM
inhibition at 0.04 µM (CDK4): 50 to 80%
inhibition at 0.2 µM (CDK4): > 80%
Compound: CNc1ccc(C(=O)Nc2ccc3c(ccn3C)n2)c(NCCCCCNC(=O)CN2CCN(c3ccc(Nc4ncc5c(C)c(C(C)=O)c(=O)n(C6CCCC6)c5n4)nc3)CC2)n1 [CPD-33, 2-((5-(2-(4-(6-((6-Acetyl-8-cyclopentyl-5-methyl-7-oxo-7,8-dihydropyrido[2,3-d]pyrimidin-2-yl)amino)pyridin-3-yl)piperazin-1-yl)acetamido)pentyl)amino)-N-(1-methyl-1H-pyrrolo[3,2-b]pyridin-5-yl)-6-(methylamino)nicotinamide]

IC50 (T47D cells): ≤ 50 nM
IC50 (Calu-1 cells): ≤ 10 nM
inhibition at 0.04 µM (CDK4): 50 to 80%
inhibition at 0.2 µM (CDK4): 50 to 80%
Compound: CC(=O)c1c(C)c2cnc(Nc3ccc(N4CCN(CC(=O)NC5CC6(C5)CC(Nc5nc(NC(C)C)ccc5C(=O)Nc5cccc(C7CC7)n5)C6)CC4)cn3)nc2n(C2CCCC2)c1=O (stereo not shown) [CPD-139, 2-((6-(2-(4-(6-((6-Acetyl-8-cyclopentyl-5-methyl-7-oxo-7,8-dihydropyrido[2,3-d]pyrimidin-2-yl)amino)pyridin-3-yl)piperazin-1-yl)acetamido)spiro[3.3]heptan-2-yl)amino)-N-(6-cyclopropylpyridin-2-yl)-6-(isopropylamino)nicotinamide]
